Data reported in US20250017907A1, “METHOD FOR PREVENTING AND/OR TREATING LIVER FIBROSIS BY USING 6-METHOXYBENZOXAZOLINONE AND COIX LACHRYMA-JOBI L. EXTRACT COMPRISING 6-METHOXYBENZOXAZOLINONE” (Taichung District Agricultural Research and Extension …, priority 2023, published 2025).

Assays:
[1] = test system: TAA-induced liver fibrotic C57BL/6J mice; experiment: Hydroxyproline assay of liver tissue; format: in vivo; conditions: CX groups (20 and 50 mg/kg oral, 6 weeks); vs TAA group
Procedure: For tests of adlay extracts, mice were randomly divided into the following seven groups (n=6, per group): (1) No treatment group (NT, normal diet), (2) Thioacetamide group (TAA, 200 mg/kg, normal diet), (3) 10% adlay seed powder (ASP) group, (4) 1% adlay leaf powder (ALP) group, (5) 1% adlay seed polysaccharide (ASPS) group, (6) 0.025% adlay seed ethanolic extract (ASE) group and (7) 0.1% ASE group. NT group received pure saline, and other groups intraperitoneally injected with TAA dissolved into saline thrice a week.
For tests of CX, mice were randomly divided into the following four groups (n=8, per group): (1) NT group, (2) TAA group (200 mg/kg), (3) CX group (CX20, 20 mg/kg), and (4) CX group (CX50, 50 mg/kg). NT group received pure saline, and other groups intraperitoneally injected with TAA dissolved into saline thrice a week. Moreover, NT group and TAA group also received 5% propylene glycol, while CX groups received CX dissolved into 5% propylene glycol (prepared in 0.9% saline) by oral gavage once per day. […]
The procedure of hydroxyproline assay is as follows. The hydroxyproline, as an indirect index of the collagen content in the liver, was determined by a hydroxyproline assay kit and the testing procedures followed the manufacturer's protocol. […] The hydroxyproline content was measured at a wavelength of 558 nm on an ELISA reader (TECAN, Switzerland). […]

[2] = test system: TGF-β1-activated HSC-T6 cells; experiment: Western blot of fibrotic and EMT-related proteins; format: cell-based, rat; conditions: HSC-T6, TGF-β1 10 ng/mL, 24 h
Procedure: (§1) The procedure of cell cultures is as follows. HSC-T6 cell is an immortalized cell line isolated from transformed SV40 large T-antigen transformed primary stellate cells of male Sprague-Dawley rats. HSC-T6 cells were maintained in Dulbecco's Modified Eagle Medium (DMEM, Sigma-Aldrich, USA) containing 8% fetal bovine serum (FBS, HyClone, USA), 100 U/mL of penicillin, and 100 μg/mL of streptomycin (Gibco, USA).
(§2) For hepatic stellate cell (HSC) activation, cells were cultured for 24 h and then replaced with serum-free medium for 24 h, after that, treated with transforming growth factor beta 1 (TGF-β1) (10 ng/mL) in the presence or absence of CX (10-100 μM) or adlay leaf, root, and seed extracts (25 and 50 μg/mL) for 24 h, or 30 min for intracellular signal pathways.
(§3) The procedure of Western blot analysis is as follows. Cells were lysed in RIPA buffer with protease inhibitor and then centrifuged at 4° C., 12000 rpm for 10 min. Collected the supernatant and quantified the total protein concentration to 50 μg. After heating at 95° C. for 10 min, the protein samples were separated by SDS-PAGE gel, transferred to PVDF membrane, followed by blocking with 6% milk, incubated with primary antibodies at 4° C., overnight and secondary antibodies at room temperature for 1 h. Blot images were visualized on Amersham Imager 680 (Cytiva, USA) with ECL agent (GeneDireX, USA).

[3] = test system: TGF-β1-activated HSC-T6 cells; experiment: Wound healing assay; format: cell-based, rat
Procedure: The procedure of wound healing assay is as follows. HSC-T6 cells were seeded on the 6-well plates for 24 h, scraped monolayer cells with a 200 μL pipette tip and washed off non-adherent cells by PBS, changed serum-free medium for 24 h, then treated with TGF-β1 and CX for 0, 24, and 48 h.

[4] = test system: TGF-β/SMAD signaling pathway; experiment: Western blot of TGF-β/SMAD signaling pathway proteins; format: cell-based, rat; conditions: HSC-T6, TGF-β1 10 ng/mL, CX 10-100 μM
Procedure: as §1, §2, §3

## COc1ccc2[nH]c(=O)oc2c1 [CX, 6-methoxybenzoxazolinone]
[1]
  liver hydroxyproline content: significantly lower
[2]; CX 10-100 μM
  TGF-β1-induced COL1A1 expression (Western blot): reduced
  TGF-β1-induced fibronectin expression (Western blot): reduced
  TGF-β1-induced α-SMA expression (Western blot): reduced
[2]; CX even at the lowest dose (10 μM)
  E-cadherin expression (Western blot): significantly enhanced
[3]; HSC-T6, CX at a dose of 100 μM
  TGF-β1-induced wound closure of 24 h: significantly reduced
[3]; HSC-T6, CX at a dose of 20-100 μM
  TGF-β1-induced wound closure of 48 h: reduced
[4]
  NOX4 expression (Western blot): decreased
  SNAIL1/2 expression (Western blot): decreased
  TWIST1/2 expression (Western blot): decreased
  ZEB1 expression (Western blot): decreased
[4]; 30 min
  TGF-β1-stimulated SMAD2 phosphorylation (p-SMAD2, Western blot): decreased with increasing dose
  TGF-β1-stimulated SMAD3 phosphorylation (p-SMAD3, Western blot): decreased with increasing dose
